# Measurements as given in US20050119461A1, “Novel receptor, and compounds which bind thereto” (THE UNIVERSITY OF MELBOURNE, priority 1997, published 2005).
# Where two headings read alike, the source gives them in different places.
# Assays:
# Ox receptor [1] = assay: Selectivity data of Table 1 (Ox over alpha2), tissue not stated; type: binding; details: tissue and species not stated
# Description: The term “selectivity” as used herein refers to the selectivity of a compound for the Ox receptor over another receptor in mammalian tissue containing said receptors. The selectivity is the reciprocal of the ratio of the affinities (in nM) for each receptor site. Preferably the tissue is human tissue.
# The compounds prepared above are represented in Table 1 below together with selectivity data where available.
# I2-receptor [2] = assay: I2-receptor binding, [3H]-idazoxan displacement in human brain homogenates; details: for Ki: human brain homogenates, Table 5, read-out: Receptor Affinities (nM) I2
# Ox receptor [3] = assay: Ox receptor binding, [3H]-rilmenidine displacement in rat brain homogenates; details: for Ki: read-out: Receptor Affinities (nM) Ox; for affinity for the Ox receptor (in words): rat
# I2-receptor [4] = assay: I2-receptor binding, [3H]-idazoxan displacement in rat brain homogenates; details: for Ki: rat brain homogenates, Table 3, read-out: Receptor Affinities (nM) I2; for affinity for the I2-receptor (in words): rat
# Description: Male WKY rats are stunned and decapitated.
# Brain membranes prepared as above, are incubated in the presence of [^3H]-methoxyidazoxan (52-57 Ci/mmol) 0.5 nM or [^3H]-idazoxan (43-45Ci/mmol) 1.6 nM in Tris.HCl buffer pH 7.4 for α2-adrenoceptor and I2-receptor binding respectively. Inhibition of binding is measured in the presence of increasing amounts of test compound (0.1 nM to 1 mM). Non-specific binding is estimated by addition of 10 μM phentolamine or 100 μM cirazoline respectively. Membrane bound radioactivity is isolated and measured as above by vacuum filtration, washing and scintillation counting. Data is analysed by the “RADLIG” program.
# Ox receptor [5] = assay: Ox receptor binding, [3H]-rilmenidine displacement in human brain homogenates; details: for Ki / Selectivity Ox/I2: human brain homogenates; for Ki: Table 5, read-out: Receptor Affinities (nM) Ox; for Selectivity Ox/I2: >1 = selectivity for the Ox receptor
# Description: Measurement of the affinity and selectivity of such compounds for the a2-adrenoceptor, I2-receptor and Ox receptor binding sites may be carried out by either of two procedures, i.e. ligand displacement studies in membranes of brain and kidney or by autoradiography of brain and kidney sections. In both cases the radioligand is tritiated rilmenidine ([^3H]-RIL).
# Male WKY rats are stunned and decapitated. The brains are removed and the forebrain dissected free, then frozen over liquid nitrogen before being stored at −70° C. Human brain cortex samples are obtained within 28 hours of death and frozen over liquid nitrogen before being stored at −70° C. On the day of the measurement the cortex (human or rat) is homogenised in 20 vol ice-cold 50 mM Tris.HCl buffer (pH 7.4) using a Polytron tissue homogeniser. The homogenate is centrifuged at 37000×g for 10 min and the pellet resuspended in 20 vol of fresh buffer and recentrifuged. The pellet is then resuspended in 33 vol of 50 mM Tris.HCl buffer for use in binding assays.
# After incubation for 30 min at 25° C., the membranes are recovered by filtration onto Whatman GF/B glass fibre filters presoaked in 1.0% polyethyleneimine. The filters are washed 3 times with cold assay buffer before measurement of bound radioactivity by scintillation counting.
# α2-adrenoceptor = α2-adrenoceptor binding, [3H]-methoxyidazoxan displacement in rat brain homogenates; details: for Ki: rat brain homogenates, Table 4, read-out: Receptor Affinities (nM) α2; for affinity for the α2-adrenoceptor (in words): rat
# Description: Male WKY rats are stunned and decapitated. The brains are removed and the forebrain dissected free, then frozen over liquid nitrogen before being stored at −70° C. […] On the day of the measurement the cortex (human or rat) is homogenised in 20 vol ice-cold 50 mM Tris.HCl buffer (pH 7.4) using a Polytron tissue homogeniser. The homogenate is centrifuged at 37000×g for 10 min and the pellet resuspended in 20 vol of fresh buffer and recentrifuged. The pellet is then resuspended in 33 vol of 50 mM Tris.HCl buffer for use in binding assays.
# [6] = rat brain homogenates, reciprocal of the ratio of affinities, >1 = more selective for Ox site
# [7] = human brains, compared with rat
SMILES,Selectivity Ox/apha2 (Ox receptor [1]),Ki (I2-receptor [2]) [nM],Selectivity Ox/I2 (Ox receptor [3]),Selectivity Ox/α2 (Ox receptor [3]),"Ki (Ox receptor [3]; rat brain homogenates, Table 3) [nM]","Ki (Ox receptor [3]; rat brain homogenates, Table 4) [nM]",Ki (I2-receptor [4]) [nM],Ki (Ox receptor [5]) [nM],Selectivity Ox/I2 (Ox receptor [5]),Ki (α2-adrenoceptor) [nM],affinity for the Ox receptor (in words) (Ox receptor [3]),affinity for the I2-receptor (in words) (I2-receptor [4]),affinity for the α2-adrenoceptor (in words) (α2-adrenoceptor),Selectivity Ox/I2 (Ox receptor [3]; [6]),Selectivity Ox/α2 (Ox receptor [3]; [6]),affinity for the I2-receptor (in words) (I2-receptor [2]; [7]),affinity for the Ox receptor (in words) (Ox receptor [5]; [7])
"CC(CNC1=NCCO1)c1ccc(OCc2ccccc2)cc1 (stereo not shown) [Compound O509, 2-(4-benzyloxyphenyl)propylaminooxazoline]",2.0,–,–,–,–,–,–,–,–,–,–,–,–,–,–,–,–
"C[C@@H](NC1=NCCO1)C1CCCCC1 [(R)-(−)-O504, (R-(−)-2-(1-Cyclohexylethylamino)-oxazoline)]",–,2700,1.8,18,31,32,56,300,9,590,–,–,–,–,–,–,–
"COC1(C2=NCCN2)COc2ccccc2O1 (stereo not shown) [Methoxyidazoxan, 2-(2-methoxy-1,4-benzodioxan)-imidazoline)]",–,> 100000,0.08,–,319000,319000,24400,100000,1,1.9,poor affinity (μM),poor affinity (μM),high affinity (nM),–,–,–,–
c1ccc(C(NC2=NCCO2)c2ccccc2)cc1 [Compound O502],–,686,12,2.4,160,160,1900,234,3,380,–,–,–,–,–,–,–
"Oc1ccc(CCNC2=NCCO2)cc1 [Compound O508, 2-(4-hydroxyphenyl)ethylaminooxazoline]",100,–,–,–,–,–,–,–,–,–,–,–,–,–,–,–,–
"c1ccc2c(c1)OCC(C1=NCCN1)O2 (stereo not shown) [Idazoxan, 2-(1,4-benzodioxan)-imidazoline]",–,4.8,–,–,62300,62300,2.3,6060,0.0008,15.6,poor (μM) affinity,high affinity (nM),high affinity (nM),0.00004,0.0003,–,–
CCC1CCCC(C)C1NC1=NCCO1 (stereo not shown) [BAY-A6781],–,8250,–,–,–,–,–,215,38,–,–,–,–,–,–,–,–
C[C@H](NC1=NCCO1)c1cccc2ccccc12 [(S)-(−)-O506],–,7580,–,–,–,–,–,99,77,–,–,–,–,–,–,–,–
"C[C@H](NC1=NCCO1)C1CCCCC1 [(S)-(+)-O504, (S)-(+)-2-(1-Cyclohexylethylamino)-oxazoline]",–,2190,6.7,1.5,106,20,707,180,12,30,–,–,–,–,–,–,–
CCC1CCCC(CC)C1NC1=NCCO1 (stereo not shown) [Compound O501],–,9100,383,12,18,18,6900,38,239,210,–,–,–,–,–,–,–
C1COC(NC(C2CC2)C2CC2)=N1 [Rilmenidine],–,5220,–,–,15,15,36,396,13,410,high affinity (nM),high affinity (nM),–,2.4,27,lower affinity,lower affinity
"FC(F)(F)C(NC1=NCCO1)C1CC1 (single isomer, unassigned; (+)) [(+)-S8349]",–,13000,–,–,–,–,–,268,49,–,–,–,–,–,–,–,–
"c1ccc2nc(C3=NCCN3)ccc2c1 [BU-224, 2-(4,5-dihydroimidaz-2-yl)quinoline]",–,2.2,–,–,> 100000,> 100000,0.9,9580,0.0002,5480,poor (μM) affinity,high affinity (nM),poor affinity (μM),–,<0.1,–,–
"FC(F)(F)C(NC1=NCCO1)C1CC1 (single isomer, unassigned; (-)) [(−)-S8350]",–,7700,–,–,–,–,–,199,32,–,–,–,–,–,–,–,–
C1CCC(C(NC2=NCCO2)C2CCCCC2)CC1 [Compound O503],–,4800,32,5.5,117,117,3800,70,69,640,–,–,–,–,–,–,–
